Measurements reported in article PMC7263498 (bioRxiv, 2020).

Molecular target: M^Pro (SARS-CoV-2 main protease) (Severe acute respiratory syndrome coronavirus 2, UniProt P0DTD1)
Assay: FRET peptide
Assay type: biochemical

How did the “% activation at 1 mM” value turn out when `CN1CCN(CC(=O)N2c3ccccc3C(=O)Nc3cccnc32)CC1` [Pirenzepine] was run?
Its value is over 15%.
